Source: ChEMBL document CHEMBL1909046, “DrugMatrix in vitro pharmacology data”

Experiments:
Carbonic anhydrase 2 = Carbonic anhydrase 2 (Homo sapiens, UniProt P00918); assay: DRUGMATRIX: Carbonic Anhydrase II enzyme inhibition (substrate: 4-Nitrophenyl acetate (4-NPA)); type: tissue-based, Erythrocyte; settings: erythrocyte; Not Active = under 50% inhibition at 10 µM
[1] = DRUGMATRIX: Glutamate, Kainate radioligand binding (ligand: [3H] Kainic acid); type: cell membranes, Rattus norvegicus, Wistar, Brain, Membrane; settings: Not Active = under 50% inhibition at 10 µM
[2] = target: Mitogen-activated protein kinase 3 (Homo sapiens, UniProt P27361); assay: DRUGMATRIX: Protein Serine/Threonine Kinase, ERK1 enzyme inhibition (substrate: Myelin Basic Protein); parameters: species or system Escherichia coli; settings: Not Active = under 50% inhibition at 10 µM
Sequence of Mitogen-activated protein kinase 3 (P27361 whole entry): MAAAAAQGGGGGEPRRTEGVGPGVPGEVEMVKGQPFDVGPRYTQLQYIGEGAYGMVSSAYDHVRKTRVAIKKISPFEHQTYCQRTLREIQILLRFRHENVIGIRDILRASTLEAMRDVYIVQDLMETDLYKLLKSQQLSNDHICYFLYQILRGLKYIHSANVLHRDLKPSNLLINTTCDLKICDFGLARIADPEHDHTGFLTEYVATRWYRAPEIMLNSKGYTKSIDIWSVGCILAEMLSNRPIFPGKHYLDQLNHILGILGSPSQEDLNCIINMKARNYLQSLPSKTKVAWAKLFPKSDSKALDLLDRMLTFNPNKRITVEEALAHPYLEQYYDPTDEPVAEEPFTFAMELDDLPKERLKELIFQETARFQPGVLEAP

Leukotriene C4 synthase = target: T1, Leukotriene C4 synthase (Cavia porcellus, UniProt A6XA80); assay: biochemical; type: tissue-based, Lung;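 note: enzyme inhibition assay of leukotriene C4 synthase, using LTA4 as the substrate; in other assays of this panel Not Active means under 50% inhibition at 10 µM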
T1 sequence (A6XA80 whole entry): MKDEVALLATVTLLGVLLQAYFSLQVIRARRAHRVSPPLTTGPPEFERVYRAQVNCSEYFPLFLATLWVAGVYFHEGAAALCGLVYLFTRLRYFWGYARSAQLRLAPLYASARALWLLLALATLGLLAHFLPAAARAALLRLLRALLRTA

Melanocortin receptor 3 = Melanocortin receptor 3 (Homo sapiens, UniProt P41968); type: cell membranes, HEK293, Membrane; settings: hek293; note: in other assays of this panel Not Active means under 50% inhibition at 10 µM
Sequence of Melanocortin receptor 3 (P41968 whole entry): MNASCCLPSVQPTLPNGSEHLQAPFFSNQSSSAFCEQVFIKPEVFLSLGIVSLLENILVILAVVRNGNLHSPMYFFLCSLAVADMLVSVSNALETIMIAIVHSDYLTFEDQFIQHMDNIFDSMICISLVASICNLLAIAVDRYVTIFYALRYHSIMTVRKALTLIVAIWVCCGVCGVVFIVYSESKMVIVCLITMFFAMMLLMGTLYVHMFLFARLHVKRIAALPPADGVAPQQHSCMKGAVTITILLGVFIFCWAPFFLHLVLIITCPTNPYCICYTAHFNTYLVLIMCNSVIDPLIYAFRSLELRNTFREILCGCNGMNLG

Neutrophil elastase = target: T2, Neutrophil elastase (Homo sapiens, UniProt P08246); type: tissue-based;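 note: inhibition of neutrophil elastase enzyme activity, measured with a p-nitroanilide-linked peptide substrate; in other assays of this panel Not Active means under 50% inhibition at 10 µM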
T2 sequence (P08246 whole entry): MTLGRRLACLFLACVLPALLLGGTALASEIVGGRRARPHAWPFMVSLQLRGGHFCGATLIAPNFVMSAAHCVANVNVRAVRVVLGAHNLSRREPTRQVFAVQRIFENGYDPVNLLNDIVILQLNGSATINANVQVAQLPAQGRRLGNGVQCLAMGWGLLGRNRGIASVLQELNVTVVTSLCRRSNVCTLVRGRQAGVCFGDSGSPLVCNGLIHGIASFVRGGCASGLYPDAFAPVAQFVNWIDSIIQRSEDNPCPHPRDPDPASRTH

[3] = target: T3, Polyunsaturated fatty acid lipoxygenase ALOX15 (Oryctolagus cuniculus, UniProt P12530); assay: biochemical; type: tissue-based, Reticulocytes;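 note: inhibition of 15-lipoxygenase enzyme activity measured with linoleic acid as the substrate; in other assays of this panel Not Active means under 50% inhibition at 10 µM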
T3 sequence (P12530 whole entry): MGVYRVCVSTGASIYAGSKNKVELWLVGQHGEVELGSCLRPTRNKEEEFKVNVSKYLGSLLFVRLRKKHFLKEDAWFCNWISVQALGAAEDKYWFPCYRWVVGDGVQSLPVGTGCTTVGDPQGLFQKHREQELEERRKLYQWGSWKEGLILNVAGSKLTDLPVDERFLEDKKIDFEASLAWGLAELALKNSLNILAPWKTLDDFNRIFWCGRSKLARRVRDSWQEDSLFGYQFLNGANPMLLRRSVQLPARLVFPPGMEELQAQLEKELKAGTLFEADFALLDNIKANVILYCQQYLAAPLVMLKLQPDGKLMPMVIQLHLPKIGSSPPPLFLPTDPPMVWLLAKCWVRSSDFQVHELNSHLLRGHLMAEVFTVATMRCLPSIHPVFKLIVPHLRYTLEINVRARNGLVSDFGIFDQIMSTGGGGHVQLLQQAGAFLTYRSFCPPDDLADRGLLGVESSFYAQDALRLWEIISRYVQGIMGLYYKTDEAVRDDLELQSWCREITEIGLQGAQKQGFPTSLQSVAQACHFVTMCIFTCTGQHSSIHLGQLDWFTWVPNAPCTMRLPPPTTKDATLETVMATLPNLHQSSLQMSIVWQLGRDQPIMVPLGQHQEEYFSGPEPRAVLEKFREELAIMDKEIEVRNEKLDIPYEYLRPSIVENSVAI

| Compound | IC50 (Carbonic anhydrase 2) | IC50 [1] | Ki [1] | IC50 [2] | IC50 (Leukotriene C4 synthase) | IC50 (Melanocortin receptor 3) | IC50 (Neutrophil elastase) | IC50 ([3]; reticulocytes) | IC50 ([2]; read-out: IC50) [µM] | IC50 (Leukotriene C4 synthase; read-out: IC50) [µM] | IC50 ([3]; read-out: IC50) [µM] | Ki (Carbonic anhydrase 2) | Ki [2] | Ki (Leukotriene C4 synthase) | Ki (Melanocortin receptor 3) | Ki (Neutrophil elastase) | Ki ([3]; reticulocytes) |
| --- | --- | --- | --- | --- | --- | --- | --- | --- | --- | --- | --- | --- | --- | --- | --- | --- | --- |
| O=[As][O-].[Na+] [SODIUM ARSENITE] | Not Active | Not Active | Not Active | Not Active | Not Active | Not Active | Not Active | Not Active |  |  |  |  |  |  |  |  |  |
| CS(=O)(=O)c1ccc(C2=C(c3ccccc3)C(=O)OC2)cc1 [ROFECOXIB] | Not Active | Not Active | Not Active | Not Active | Not Active | Not Active | Not Active | Not Active |  |  |  |  |  |  |  |  |  |
| CC1(C)[C@H](C(=O)O)N2C(=O)C[C@H]2S1(=O)=O [SULBACTAM] | Not Active | Not Active | Not Active | Not Active | Not Active | Not Active | Not Active | Not Active |  |  |  |  |  |  |  |  |  |
| CC(N)C12CC3CC(CC(C3)C1)C2 (stereo unspecified) [RIMANTADINE] | Not Active | Not Active | Not Active | Not Active | Not Active | Not Active | Not Active | Not Active |  |  |  |  |  |  |  |  |  |
| CC[C@H](C)C(=O)O[C@H]1CCC=C2C=C[C@H](C)[C@H](CC[C@@H]3C[C@@H](O)CC(=O)O3)[C@H]21 [MEVASTATIN] | Not Active | Not Active | Not Active | Not Active | Not Active | Not Active | Not Active | Not Active |  |  |  |  |  |  |  |  |  |
| O=C(OC[C@H]1O[C@@H](OC(=O)c2cc(O)c(O)c(OC(=O)c3cc(O)c(O)c(O)c3)c2)[C@H](OC(=O)c2cc(O)c(O)c(OC(=O)c3cc(O)c(O)c(O)c3)c2)[C@@H](OC(=O)c2cc(O)c(O)c(OC(=O)c3cc(O)c(O)c(O)c3)c2)[C@@H]1OC(=O)c1cc(O)c(O)c(OC(=O)c2cc(O)c(O)c(O)c2)c1)c1cc(O)c(O)c(OC(=O)c2cc(O)c(O)c(O)c2)c1 [TANNIC ACID] | Not Active | Not Active | Not Active |  |  | Not Active | Not Active |  | 4.05 | 2.72 | 0.268 |  |  |  |  |  |  |
| LEAD(IV) ACETATE | Not Active | Not Active | Not Active | Not Active | Not Active | Not Active | Not Active | Not Active |  |  |  | Not Active | Not Active | Not Active | Not Active | Not Active | Not Active |
| CO[C@@H]1[C@@H](OC)[C@H](C)[C@@](O)(CC(=O)O)O[C@H]1[C@H](C)[C@H]1O[C@@]2(CC[C@@](C)([C@H]3CC[C@@](C)([C@@H]4O[C@@H]([C@H]5O[C@](C)(O)[C@H](C)C[C@@H]5C)C[C@@H]4O[C@@H]4C[C@H](OC)[C@@H](OC)[C@H](C)O4)O3)O2)C[C@H](O)[C@H]1C.N [MADURAMICIN] | Not Active | Not Active | Not Active | Not Active | Not Active | Not Active | Not Active | Not Active |  |  |  |  |  |  |  |  |  |
| C[N+]1(C)[C@@H]2C[C@@H](OC(=O)[C@H](CO)c3ccccc3)C[C@H]1[C@@H]1O[C@@H]12.[Br-] [METHSCOPOLAMINE BROMIDE] | Not Active | Not Active | Not Active | Not Active | Not Active | Not Active | Not Active | Not Active |  |  |  |  |  |  |  |  |  |
| Cc1nnc(NS(=O)(=O)c2ccc(N)cc2)s1 [SULFAMETHIZOLE] | Not Active | Not Active | Not Active | Not Active | Not Active | Not Active | Not Active | Not Active |  |  |  |  |  |  |  |  |  |
| Cc1ccc(S(=O)(=O)NC(=O)NN2CCCCCC2)cc1 [TOLAZAMIDE] | Not Active | Not Active | Not Active | Not Active | Not Active | Not Active | Not Active |  |  |  | 5.11 |  |  |  |  |  |  |
| CCC(C)(C)C(=O)O[C@H]1C[C@@H](C)C=C2C=C[C@H](C)[C@H](CC[C@@H]3C[C@@H](O)CC(=O)O3)[C@H]21 [SIMVASTATIN] | Not Active | Not Active | Not Active | Not Active | Not Active | Not Active | Not Active | Not Active |  |  |  |  |  |  |  |  |  |
| OC[C@@H](O)[C@@H](O)[C@H](O)[C@H](O)CO [MANNITOL] | Not Active | Not Active | Not Active | Not Active | Not Active | Not Active | Not Active | Not Active |  |  |  |  |  |  |  |  |  |
| CCN(CC)N=O [N-NITROSODIETHYLAMINE] | Not Active | Not Active | Not Active | Not Active | Not Active | Not Active | Not Active | Not Active |  |  |  |  |  |  |  |  |  |
| CC(=O)O[C@]1(C(C)=O)CC[C@H]2[C@@H]3C[C@H](C)C4=CC(=O)CC[C@]4(C)[C@H]3CC[C@@]21C [MEDROXYPROGESTERONE ACETATE] | Not Active | Not Active | Not Active | Not Active | Not Active | Not Active | Not Active | Not Active |  |  |  |  |  |  |  |  |  |
| CN1C[C@H](CNC(=O)OCc2ccccc2)C[C@@H]2c3cccc4c3c(cn4C)C[C@H]21 [METERGOLINE] | Not Active | Not Active | Not Active | Not Active | Not Active | Not Active | Not Active | Not Active |  |  |  |  |  |  |  |  |  |
| CC(Cl)(Cl)Cl [TRICHLOROETHANE] | Not Active | Not Active | Not Active | Not Active | Not Active | Not Active | Not Active | Not Active |  |  |  |  |  |  |  |  |  |
| CC1=C(/C=C/C(C)=C/C=C/C(C)=C/C(=O)O)C(C)(C)CCC1 [TRETINOIN] | Not Active | Not Active | Not Active | Not Active | Not Active | Not Active | Not Active | Not Active |  |  |  |  |  |  |  |  |  |
| C=CCc1ccc2c(c1)OCO2 [SAFROLE] | Not Active | Not Active | Not Active | Not Active | Not Active | Not Active | Not Active | Not Active |  |  |  |  |  |  |  |  |  |
| C1CCN2C[C@@H]3C[C@@H](CN4CCCC[C@@H]34)[C@H]2C1 [SPARTEINE] | Not Active | Not Active | Not Active | Not Active | Not Active | Not Active | Not Active | Not Active |  |  |  |  |  |  |  |  |  |
